Measured values published in patent US20260306502A1, “MITOCHONDRIAL UNCOUPLERS FOR TREATMENT OF METABOLIC DISEASES AND CANCER” (Mito Biopharma, LLC, priority 2022, published 2026).

The compounds below were run on C2C12 cells (assay: Mitochondrial uncoupling activity by oxygen consumption rate (OCR) assay, Seahorse, in presence of oligomycin). Settings: Mus musculus, C2C12; in the presence of oligomycin 2.5 μM; read-out: COCR-min: minimal concentration increasing OCR in the presence of oligomycin.
Type: cell-based, mouse
Protocol: By definition, mitochondrial uncoupling is the decoupling of mitochondrial electron transport chain activity (mitochondrial oxidation) from ATP synthesis by mitochondrial ATP synthase. Technically, mitochondrial uncoupling activity is defined by the ability of a chemical compound to induce oxygen consumption of cells or isolated mitochondria in the presence of a mitochondrial ATP synthase inhibitor such as oligomycin. Accordingly, mitochondrial uncoupling activity was determined by oxygen consumption rate assay with a Seahorse XF96 or a Seahorse XF24 instrument following the vendor's instruction, using mouse myoblast C2C12 cells grown in a medium containing 10% fetal bovine serum. OCR was measured stepwise under the following conditions: first under normal growth conditions; then. OCR was measured after oligomycin was added to reach a final concentration of 2.5 μM); then OCR was measured after the compound was further added at varying concentrations. Finally, rotenone and antimycin A were added to confirm that the measurement was mitochondrial oxygen consumption (rotenone and […] mitochondrial electron transport chain inhibitors).
COCR-min the minimal concentration required for each compound to induce OCR in the presence of oligomycin, of disclosed compounds, was also determined by varying the final concentration of the compound added to the Seahorse OCR analysis experiment as described above (FIG. 2, varying testing compound concentration). Table 8 summarizes the mitochondrial uncoupling activity of disclosed compounds, as represented by COCR-min.
`COCOCc1cc(Cl)cc(C(=O)Nc2nc3ccc(C(F)(F)F)cc3s2)c1O` [Compound 1, 5-chloro-2-hydroxy-3-((methoxymethoxy)methyl)-N-(6-(trifluoromethyl)benzo[d]thiazol-2-yl)benzamide] was tested, and the minimal effective concentration was less than 5 µM.
`COCCOCc1cc(Cl)cc(C(=O)Nc2nc3ccc(OC(F)(F)F)cc3s2)c1O` [Compound 5, 5-chloro-2-hydroxy-3-((2-methoxyethoxy)methyl)-N-(6-(trifluoromethoxy)benzo[d]thiazol-2-yl)benzamide] gave a minimal effective concentration of 5 to 10 µM.
Compound `COCCOCc1cc(Cl)cc(C(=O)Nc2cnc(C(F)(F)F)cn2)c1O` [Compound 6, 5-chloro-2-hydroxy-3-((2-methoxyethoxy)methyl)-N-(5-(trifluoromethyl)pyrazin-2-yl)benzamide] has a minimal effective concentration of 5 to 10 µM.
In the case of `COCCOCc1cc(Cl)cc(C(=O)Nc2nc3ccc(F)cc3s2)c1O` [Compound 8, 5-chloro-N-(6-fluorobenzo[d]thiazol-2-yl)-2-hydroxy-3-((2-methoxyethoxy)methyl)benzamide], the minimal effective concentration is reported as less than 5 µM.
In the case of `CN(C)CCc1cc(Cl)cc(C(=O)Nc2ccc(C(F)(F)F)cc2Cl)c1O` [Compound 18, 5-chloro-N-(2-chloro-4-(trifluoromethyl)phenyl)-3-(2-(dimethylamino)ethyl)-2-hydroxybenzamide], the minimal effective concentration is reported as less than 5 µM.
`CC(=O)N1CCN(Cc2cc(Cl)cc(C(=O)Nc3nc4ccc(C(F)(F)F)cc4s3)c2O)CC1` [Compound 19, 3-((4-acetylpiperazin-1-yl)methyl)-5-chloro-2-hydroxy-N-(6-(trifluoromethyl)benzo[d]thiazol-2-yl)benzamide] showed a minimal effective concentration of 5 to 10 µM.
For `COCCOCc1cc(Cl)cc(C(=O)Nc2ccc(C(F)(F)F)nc2)c1O` [Compound 20, 5-chloro-2-hydroxy-3-((2-methoxyethoxy)methyl)-N-(6-(trifluoromethyl)pyridin-3-yl)benzamide], the minimal effective concentration was 5 to 10 µM.
`COCCOCc1cc(Cl)cc(C(=O)Nc2cnc(C(F)(F)F)nc2)c1O` [Compound 21, 5-chloro-2-hydroxy-3-((2-methoxyethoxy)methyl)-N-(2-(trifluoromethyl)pyrimidin-5-yl)benzamide] gave a minimal effective concentration greater than 10 µM.
`COCCNCc1cc(Cl)cc(C(=O)Nc2nc3ccc(C(F)(F)F)cc3s2)c1O` [Compound 22, 5-chloro-2-hydroxy-3-(((2-methoxyethyl)amino)methyl)-N-(6-(trifluoromethyl)benzo[d]thiazol-2-yl)benzamide] was tested, and the minimal effective concentration was less than 5 µM.
For `COCCOCCN(C)Cc1cc(Cl)cc(C(=O)Nc2nc3ccc(C(F)(F)F)cc3s2)c1O` [Compound 24, 5-chloro-2-hydroxy-3-(((2-(2-methoxyethoxy)ethyl)(methyl)amino)methyl)-N-(6-(trifluoromethyl)benzo[d]thiazol-2-yl)benzamide], the minimal effective concentration was less than 5 µM.
In the case of `CN1CCN(Cc2cc(Cl)cc(C(=O)Nc3nc4ccc(C(F)(F)F)cc4s3)c2O)CC1` [Compound 28, 5-chloro-2-hydroxy-3-((4-methylpiperazin-1-yl)methyl)-N-(6-(trifluoromethyl)benzo[d]thiazol-2-yl)benzamide], the minimal effective concentration is reported as less than 5 µM.
For `O=C(Nc1nc2ccc(C(F)(F)F)cc2s1)c1cc(Cl)cc(CN2CCC(O)C2)c1O` (centres unmarked) [Compound 30, 5-chloro-2-hydroxy-3-((3-hydroxypyrrolidin-1-yl)methyl)-N-(6-(trifluoromethyl)benzo[d]thiazol-2-yl)benzamide], the minimal effective concentration was greater than 10 µM.
`CC(=O)NC1CCN(Cc2cc(Cl)cc(C(=O)Nc3nc4ccc(C(F)(F)F)cc4s3)c2O)C1` (centres unmarked) [Compound 33, 3-((3-acetamidopyrrolidin-1-yl)methyl)-5-chloro-2-hydroxy-N-(6-(trifluoromethyl)benzo[d]thiazol-2-yl)benzamide] showed a minimal effective concentration greater than 10 µM.
Work on `CO/N=C/c1cc(Cl)cc(C(=O)Nc2nc3ccc(C(F)(F)F)cc3s2)c1O` [Compound 39, (E)-5-chloro-2-hydroxy-3-((methoxyimino)methyl)-N-(6-(trifluoromethyl)benzo[d]thiazol-2-yl)benzamide] yielded a minimal effective concentration greater than 10 µM.
For `COCCOCc1cc(Cl)cc(C(=O)Nc2nc3ccc(C(F)F)cc3s2)c1O` [Compound 42, 5-chloro-N-(6-(difluoromethyl)benzo[d]thiazol-2-yl)-2-hydroxy-3-((2-methoxyethoxy)methyl)benzamide], the minimal effective concentration was 5 to 10 µM.
For `COCCOCc1cc(Cl)cc(C(=O)Nc2ccc(C(F)(F)F)cn2)c1O` [Compound 45, 5-chloro-2-hydroxy-3-((2-methoxyethoxy)methyl)-N-(5-(trifluoromethyl)pyridin-2-yl)benzamide], the minimal effective concentration was 5 to 10 µM.
`COCCOCc1cc(I)cc(C(=O)Nc2nc3ccc(C(F)(F)F)cc3s2)c1O` [Compound 46, 2-hydroxy-5-iodo-3-((2-methoxyethoxy)methyl)-N-(6-(trifluoromethyl)benzo[d]thiazol-2-yl)benzamide] showed a minimal effective concentration of less than 5 µM.
Compound `COCCOCc1cc(Cl)cc(C(=O)Nc2ccc(C(F)(F)F)nc2Cl)c1O` [Compound 47, 5-chloro-N-(2-chloro-6-(trifluoromethyl)pyridin-3-yl)-2-hydroxy-3-((2-methoxyethoxy)methyl)benzamide] has a minimal effective concentration of less than 5 µM.
`O=C(Nc1ncc(C(F)(F)F)s1)c1cc(Cl)cc(CN2CCOCC2)c1O` [Compound 51, 5-chloro-2-hydroxy-3-(morpholinomethyl)-N-(5-(trifluoromethyl)thiazol-2-yl)benzamide] was tested, and the minimal effective concentration was less than 5 µM.
For `O=C(Nc1ccc(C(F)(F)F)nc1)c1cc(Cl)cc(CN2CCOCC2)c1O` [Compound 53, 5-chloro-2-hydroxy-3-(morpholinomethyl)-N-(6-(trifluoromethyl)pyridin-3-yl)benzamide], the minimal effective concentration was less than 5 µM.
Work on `N#CC1CCN(Cc2cc(Cl)cc(C(=O)Nc3ccc(C(F)(F)F)nc3)c2O)C1` (centres unmarked) [Compound 55, 5-chloro-3-((3-cyanopyrrolidin-1-yl)methyl)-2-hydroxy-N-(6-(trifluoromethyl)pyridin-3-yl)benzamide] yielded a minimal effective concentration of less than 5 µM.
`O=C(Nc1nc2ccc(C(F)(F)F)cc2s1)c1cc(Cl)cc(CN2CCCC2C(F)(F)F)c1O` (centres unmarked) [Compound 56, 5-chloro-2-hydroxy-N-(6-(trifluoromethyl)benzo[d]thiazol-2-yl)-3-((2-(trifluoromethyl)pyrrolidin-1-yl)methyl)benzamide] was tested, and the minimal effective concentration was less than 5 µM.
With `COc1cc(C(F)(F)F)cc2sc(NC(=O)c3cc(Cl)cc(C)c3O)nc12` [Compound 67, 5-chloro-2-hydroxy-N-(4-methoxy-6-(trifluoromethyl)benzo[d]thiazol-2-yl)-3-methylbenzamide] the minimal effective concentration was less than 5 µM.
For `COCCOCc1cc(C(F)(F)F)cc2sc(NC(=O)c3cc(Cl)cc(CN(CCOC)CCOC)c3O)nc12` [Compound 70, 3-((bis(2-methoxyethyl)amino)methyl)-5-chloro-2-hydroxy-N-(4-((2-methoxyethoxy)methyl)-6-(trifluoromethyl)benzo[d]thiazol-2-yl)benzamide], the minimal effective concentration was less than 5 µM.
For `Cc1cc(Cl)cc(C(=O)Nc2nc3c(COCCN4CCN(C)CC4)cc(C(F)(F)F)cc3s2)c1O` [Compound 75, 5-chloro-2-hydroxy-3-methyl-N-(4-((2-(4-methylpiperazin-1-yl)ethoxy)methyl)-6-(trifluoromethyl)benzo[d]thiazol-2-yl)benzamide], the minimal effective concentration was less than 5 µM.
With `C[C@@H]1CN(Cc2cc(Cl)cc(C(=O)Nc3nc4c(COCCN5CCN(C)CC5)cc(C(F)(F)F)cc4s3)c2O)C[C@H](C)O1` [Compound 76, 5-chloro-3-((cis-2,6-dimethylmorpholino)methyl)-2-hydroxy-N-(4-((2-(4-methylpiperazin-1-yl)ethoxy)methyl)-6-(trifluoromethyl)benzo[d]thiazol-2-yl)benzamide] the minimal effective concentration was less than 5 µM.
Compound `Cc1cc(Cl)cc(C(=O)Nc2nc3c(COCc4ccc(Cl)cc4)cc(C(F)(F)F)cc3s2)c1O` [Compound 82, 5-chloro-N-(4-(((4-chlorobenzyl)oxy)methyl)-6-(trifluoromethyl)benzo[d]thiazol-2-yl)-2-hydroxy-3-methylbenzamide] has a minimal effective concentration of less than 5 µM.
`Cc1cc(Cl)cc(C(=O)Nc2nc3c(COCc4ccccc4)cc(C(F)(F)F)cc3s2)c1O` [Compound 84, N-(4-((benzyloxy)methyl)-6-(trifluoromethyl)benzo[d]thiazol-2-yl)-5-chloro-2-hydroxy-3-methylbenzamide] showed a minimal effective concentration of less than 5 µM.
For `Cc1cc(Cl)cc(C(=O)Nc2nc3c(COCCO)cc(C(F)(F)F)cc3s2)c1O` [Compound 88, 5-chloro-2-hydroxy-N-(4-((2-hydroxyethoxy)methyl)-6-(trifluoromethyl)benzo[d]thiazol-2-yl)-3-methylbenzamide], the minimal effective concentration was 5 to 10 µM.
For `COc1ccc(COCc2cc(C(F)(F)F)cc3sc(NC(=O)c4cc(Cl)cc(C)c4O)nc23)cc1` [Compound 89, 5-chloro-2-hydroxy-N-(4-(((4-methoxybenzyl)oxy)methyl)-6-(trifluoromethyl)benzo[d]thiazol-2-yl)-3-methylbenzamide], the minimal effective concentration was less than 5 µM.

Same assay, conditions: Mus musculus, C2C12; minimal concentration leading to OCR increase; read-out: Activity (Cmin-OCR)
For `O=C(Nc1nc2ccc(C(F)(F)F)cc2s1)c1cc(Cl)cc(CO)c1O` [Compound 49 in U.S. Pat. No. 10,227,315, reference compound], the minimal effective concentration was 25 µM.

Same assay, conditions: in words, compared to similar compounds of the present invention
In the case of `O=C(Nc1nc2ccc(C(F)(F)F)cc2s1)c1cc(Cl)cc(CO)c1O` [Compound 49 in U.S. Pat. No. 10,227,315, reference compound], the mitochondrial uncoupling activity is reported as “low”.
